Measurements: paper PMC12268683, “A global perspective on autoinducer-2-mediated cell communication in prokaryotes” (iScience, 2025)

Experiments:
[1] = biological target: T1, LsrB receptor of S. coelicolor A3(2) (second of two, locus not given); assay: isothermal titration calorimetry; type: binding, Streptomyces coelicolor; conditions: 25 °C, 50 mM Tris, 150 mM NaCl, 10% glycerol, pH 8.0; one-site model; no borate added; which of the two LsrB not given
T1 construct: His6-tagged, pET-28a, E. coli BL21(DE3) or its luxS mutant, Ni-NTA
Text: isothermal titration calorimetry on LsrB receptor of S. coelicolor A3(2) (second of two, locus not printed) | the LsrB receptors bound AI-2 with high affinity

[2] = biological target: T2, LsrB receptor of S. coelicolor A3(2) (first of two, locus not given); assay: isothermal titration calorimetry; type: binding, Streptomyces coelicolor; conditions: 25 °C, 50 mM Tris, 150 mM NaCl, 10% glycerol, pH 8.0; one-site model; no borate added; which of the two LsrB not given
T2 construct: His6-tagged, pET-28a, E. coli BL21(DE3) or its luxS mutant, Ni-NTA
Text: isothermal titration calorimetry on LsrB receptor of S. coelicolor A3(2) (first of two, locus not printed) | the LsrB receptors bound AI-2 with high affinity

Kd [1]: 101 ± 10 nM
Kd [2]: 175 ± 30 nM
Structure (SMILES): CC(=O)C(=O)[C@@H](O)CO [DPD]
